The values below are quoted from earlier work in patent US20100273258A1, “Interactive Microenvironment System” (The Ohio State University, priority 2009, published 2010).

For data set [1], the system named is human breast cancer cell lines.
Data set [2] relates to DNA methylation of cancer suppressor genes. The conditions noted are these: versus 5-Aza-2′-deoxycystidine and Trichostatin A (TSA).

Take `Cc1cc2c(C(C)C)c(O)c(O)c(C=O)c2c(O)c1-c1c(C)cc2c(C(C)C)c(O)c(O)c(C=O)c2c1O` (racemic) [(±)-GP]: in data set [1] (MCF-7, MCF-7Adr and MDA-MB-231 human breast cancer cell lines), the anti-proliferative effects result is “anti-proliferative effects”. Take `Cc1cc2c(C(C)C)c(O)c(O)c(C=O)c2c(O)c1-c1c(C)cc2c(C(C)C)c(O)c(O)c(C=O)c2c1O` [(−)-GP]: the “demethylating agent compared with clinical drugs” value in data set [2] is listed as “much better demethylating agent”. In addition, the “anti-human breast cancer proliferative potency relative to racemic (±)-GP” value in data set [1] (previously published data) was 10 fold.
